Where two headings read alike, the source gives them in different places.
Biological target: T1, THP1 dual cell (Homo sapiens, UniProt Q8N697)
T1 construct: R848 (TLR7/8)-stimulated ISRE reporter
Test: THP1 DUAL/ISRE cell reporter assay (R848 stimulated)
Assay type: cell-based
Description: CAL-1, THP1 or human primary cells were incubated with dTASL1 and other identified compounds (or the corresponding volume of DMSO vehicle) for 24 h or 48 h at the indicated concentration and subsequently stimulated with R848 (5 μg/ml) for the indicated time. Supernatant or cells were recovered for ELISA, SDS-PAGE or microscopy-based analysis.
THP1 DUAL cells (1×10^5 cells per 96 well) were incubated with compounds for 24 h or 48 h, and subsequently stimulated for 20 h as indicated. Cell culture supernatant were collected, cleared of residual cells by centrifugation and analyzed for NF-κB and ISRE reporter activity according to the manufacturer's instructions. For experiments in 384-well format, compounds were pre-plated at defined concentrations and THP1 dual cells were added at 800 k/well concentration in […]. After incubation for 24 h or 48 h cells were stimulated with […] of a 25 μg/ml stock of R848 or 0.5 μg/ml Pam3CKS4 5× stocks as indicated for 20 h and detected by directly adding Quanti-Luc Plus (Invivogen) solution to the plates, according to the manufacturer's instructions and without adding stabilizer solution. Quanti-Blue detection was carried out according to the manifacturers instructions, with QB reagent and buffer (Invivogen) dissolved in 30 ml water, instead of the 100 ml used for standard detection.
Based on potency and kinetics, the compound C5 was selected for further characterization (FIG. 2E). C5 is an elongated molecule comprised of an aromatic 2-(4-ethoxyphenyl)-quinoline moiety followed by an amide bond and an aliphatic 2-methyl-1-propylpiperidine (FIG. 2F). To validate the scaffold and explore the chemical space at the aliphatic end of the compound, five analogues and an independently synthesized batch of C5 were obtained. […] Therefore the C5 compound was selected, which was named dTASL1 as its activity leads to TASL degradation, to assess effects on TLR7/8-induced signaling and responses.
The following compounds were assayed for their activity in the degradation assay (THP1 DUAL/ISRE cell reporter assay), as described herein: […]

[1] = 24 h treatment before R848 stimulation, read-out: IC50 24 h
[2] = 48 h treatment before R848 stimulation, read-out: IC50 48 h

T1 sequence (Q8N697 whole entry): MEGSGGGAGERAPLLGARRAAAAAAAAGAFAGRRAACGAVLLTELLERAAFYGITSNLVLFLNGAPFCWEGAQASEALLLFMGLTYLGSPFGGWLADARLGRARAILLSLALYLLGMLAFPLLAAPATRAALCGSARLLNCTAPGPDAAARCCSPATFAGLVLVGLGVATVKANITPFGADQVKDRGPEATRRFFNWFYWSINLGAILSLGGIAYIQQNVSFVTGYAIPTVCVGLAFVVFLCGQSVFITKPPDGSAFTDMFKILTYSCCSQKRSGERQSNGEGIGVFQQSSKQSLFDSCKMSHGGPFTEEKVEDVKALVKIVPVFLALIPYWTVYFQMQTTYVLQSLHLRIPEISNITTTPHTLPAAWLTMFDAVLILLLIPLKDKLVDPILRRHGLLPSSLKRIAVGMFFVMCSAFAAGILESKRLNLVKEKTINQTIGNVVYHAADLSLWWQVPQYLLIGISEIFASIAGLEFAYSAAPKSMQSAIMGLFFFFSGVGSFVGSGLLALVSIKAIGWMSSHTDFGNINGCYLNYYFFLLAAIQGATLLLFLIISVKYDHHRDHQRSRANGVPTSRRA

IC50 [1] [µM]	IC50 [2] [µM]	SMILES
3.49	2.96	CCOc1ccc(-c2cc(C(=O)NCCCN3CCCCCC3)c3ccccc3n2)cc1 [dTASL1-a2]
4.16	2.39	CCOc1ccc(-c2cc(C(=O)NCCCN3CCCCC3)c3ccccc3n2)cc1 [dTASL1-a4]
